In the assay the target is T1, human wildtype CFTR (Homo sapiens, UniProt P13569).
T1 construct: expressed in transfected cells; host or cells: Fischer rat thyroid (FRT) cells
Description: Fluorescence platereader assay of CFTR-mediated iodide influx (YFP quenching) in FRT cells. The class given is cell-based. To be noted: for inhibition at 5 µM / inhibition at 25 µM: FRT; for IC50: apparent IC50 from concentration-inhibition data, fluorescence platereader assay. As to the method:
A. Cell lines and compounds—Fischer rat thyroid (FRT) cells co-expressing human wildtype CFTR and the halide indicator YFP-H148Q/1152L were generated as described (see, e.g., Ma et al., J. Clin. Invest. 110:1651-1658 (2002)). Cells were plated in 96-well black-walled microplates (Corning Costar) at a density of 20,000 cells per well in Coon's modified F12 medium supplemented with 5% fetal calf serum, 2 mM L-glutamine, 100 U/mL penicillin, and 100 μg/ml streptomycin. Assays were performed at 48 h after plating the cells when the cells were just confluent. For some experiments, measurements were made using T84 human intestinal epithelial cells and for other experiments, measurements were obtained using primary cultures of human bronchial epithelial cells, which were obtained and grown essentially as previously described (see, e.g., 3 and 27).
B. Compound Screening—Assays were performed using an automated screening platform (Beckman) equipped with FLUOStar fluorescence platereaders (BMG Lab Technologies, Offenburg, Germany) as described (see Ma et al., supra). Each well of a 96-well plate containing FRT cells was washed 3 times in PBS (300 μL/wash), leaving 50 μL PBS. […] After 15 min, 96-well plates were transferred to a plate reader for fluorescence assay. Each well was assayed individually for CFTR-mediated iodide influx by recording fluorescence continuously (200 ms per point) for 2 s (baseline) and then for 10 s after rapid addition of 160 μL of isosmolar PBS in which 137 mM chloride was replaced by iodide. The initial rate of iodide influx was computed from fluorescence data by non-linear regression.
Collections of synthetic and natural compounds were screened according to the screening procedures described in Example 2. A cell-based fluorescence assay was used in which CFTR inhibitors were identified by reduced iodide influx in FRT cells co-expressing human CFTR and a YFP halide sensor. CFTR was maximally activated by a mixture of agonists having different activating mechanisms. Inhibition of iodide influx was observed as reduced YFP fluorescence quenching in response to rapid iodide addition to each well of 96-well plates. […]

Where [1] appears, read: Table 2, screening, 5 μM, read-out: % Inhibition at 5 μM.
The mark [2] stands for this setting: Table 2, screening, 25 μM, read-out: % Inhibition at 25 μM.

Read-outs that look alike come from different tables or passages of the source.

T1 sequence (P13569 whole entry): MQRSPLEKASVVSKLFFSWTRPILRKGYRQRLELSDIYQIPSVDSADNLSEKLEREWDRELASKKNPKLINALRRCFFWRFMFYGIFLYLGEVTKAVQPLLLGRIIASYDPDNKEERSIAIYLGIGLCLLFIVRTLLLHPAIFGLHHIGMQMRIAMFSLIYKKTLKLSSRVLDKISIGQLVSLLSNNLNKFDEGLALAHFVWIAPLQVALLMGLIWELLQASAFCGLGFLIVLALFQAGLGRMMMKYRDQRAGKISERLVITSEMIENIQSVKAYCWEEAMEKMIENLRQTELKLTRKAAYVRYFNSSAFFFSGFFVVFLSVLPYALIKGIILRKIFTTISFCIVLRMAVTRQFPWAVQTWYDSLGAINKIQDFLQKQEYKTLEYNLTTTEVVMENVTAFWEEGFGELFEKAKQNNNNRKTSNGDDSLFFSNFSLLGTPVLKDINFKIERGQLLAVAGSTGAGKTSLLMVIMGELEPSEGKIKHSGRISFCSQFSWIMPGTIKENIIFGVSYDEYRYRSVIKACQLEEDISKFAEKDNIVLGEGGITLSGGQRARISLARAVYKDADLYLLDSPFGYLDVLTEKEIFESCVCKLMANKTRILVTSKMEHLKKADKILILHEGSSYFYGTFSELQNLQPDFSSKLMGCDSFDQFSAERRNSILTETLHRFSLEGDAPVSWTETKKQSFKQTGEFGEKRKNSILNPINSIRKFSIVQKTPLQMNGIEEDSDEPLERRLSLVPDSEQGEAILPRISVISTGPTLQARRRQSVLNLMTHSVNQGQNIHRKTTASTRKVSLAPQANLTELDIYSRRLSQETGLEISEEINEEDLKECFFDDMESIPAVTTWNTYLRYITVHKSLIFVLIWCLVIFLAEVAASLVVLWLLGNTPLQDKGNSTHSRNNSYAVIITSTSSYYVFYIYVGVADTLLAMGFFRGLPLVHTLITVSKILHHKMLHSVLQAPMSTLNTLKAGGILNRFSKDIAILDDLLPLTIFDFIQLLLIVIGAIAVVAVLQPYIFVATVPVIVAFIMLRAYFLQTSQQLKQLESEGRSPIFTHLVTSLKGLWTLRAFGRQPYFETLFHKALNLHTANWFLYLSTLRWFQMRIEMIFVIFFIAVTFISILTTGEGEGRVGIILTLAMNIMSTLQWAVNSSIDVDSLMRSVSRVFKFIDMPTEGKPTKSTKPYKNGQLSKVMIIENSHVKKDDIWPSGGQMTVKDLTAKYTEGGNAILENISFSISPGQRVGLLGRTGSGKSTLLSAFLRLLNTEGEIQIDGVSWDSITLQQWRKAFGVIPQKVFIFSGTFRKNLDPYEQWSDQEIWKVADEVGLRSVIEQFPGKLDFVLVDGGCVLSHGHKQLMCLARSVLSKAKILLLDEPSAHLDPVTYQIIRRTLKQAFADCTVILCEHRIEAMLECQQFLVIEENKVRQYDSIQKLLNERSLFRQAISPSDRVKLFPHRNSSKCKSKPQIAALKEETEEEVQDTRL

With `Cc1ccccc1-c1c2c(=O)n(C)c(=O)n(C)c2c2n1-c1ccccc1NC2c1ccc(O)c(O)c1` (stereo not shown), the inhibition at 5 µM under setting [1] was below 10%. The inhibition at 25 µM under setting [2] was 38%.
Consider `COc1cc(O)ccc1C1Nc2ccccc2-n2c(-c3ccccc3F)c3c(=O)n(C)c(=O)n(C)c3c21` (stereo not shown), for which, under setting [1], the inhibition at 5 µM is below 10%. The inhibition at 25 µM under setting [2] worked out at 41%.
For `Cn1c(=O)c2c(-c3ccccc3)n3c(c2n(C)c1=O)C(c1cccc(O)c1O)Nc1ccccc1-3` (stereo not shown), in that order: below 10% and 38%.
On the same counts, the results for `COc1ccc(-c2c3c(=O)n(C)c(=O)n(C)c3c3n2-c2ccccc2NC3c2cccc(F)c2)cc1` (stereo not shown) are below 10% and 37%.
For `Cn1c(=O)c2c(-c3ccccc3F)n3c(c2n(C)c1=O)C(c1ccc(O)cc1O)Nc1ccccc1-3` (stereo not shown), under setting [1], the inhibition at 5 µM was below 10%. The inhibition at 25 µM under setting [2] was determined as 36%.
As for `COc1ccc(-c2c3c(=O)n(C)c(=O)n(C)c3c3n2-c2ccccc2NC3c2cccc(C)c2)cc1` (stereo not shown), the inhibition at 5 µM under setting [1] was below 10%. The inhibition at 25 µM under setting [2] turned out to be 35%.
For `COc1ccccc1C1Nc2cc(C)c(C)cc2-n2c(-c3ccccc3)c3c(=O)n(C)c(=O)n(C)c3c21` (stereo not shown), in that order: below 10% and 47%.
In the case of `COc1ccc(-c2c3c(=O)n(C)c(=O)n(C)c3c3n2-c2ccccc2NC3c2cccc(OC)c2)cc1` (stereo not shown), under setting [1], the inhibition at 5 µM stood at 13%. Also, the inhibition at 25 µM under setting [2] was determined as 47%.
Consider `CCOc1cc(C2Nc3ccccc3-n3c(-c4ccccc4)c4c(=O)n(C)c(=O)n(C)c4c32)ccc1O` (stereo not shown), for which, under setting [1], the inhibition at 5 µM is below 10%. Under setting [2], the inhibition at 25 µM was 47%.
On the same counts, the results for `COc1ccc(-c2c3c(=O)n(C)c(=O)n(C)c3c3n2-c2ccccc2NC3c2ccccc2Cl)cc1` (stereo not shown) are below 10% and 47%.
For `Cc1ccccc1-c1c2c(=O)n(C)c(=O)n(C)c2c2n1-c1ccccc1NC2c1ccc(C#N)cc1` (stereo not shown), in that order: below 10% and 45%.
For `Cn1c(=O)c2c(-c3ccccc3F)n3c(c2n(C)c1=O)C(c1ccc(Cl)cc1)Nc1ccccc1-3` (stereo not shown), in that order: below 10% and 44%.
For the compound `Cc1cc2c(cc1C)-n1c(-c3ccccc3F)c3c(=O)n(C)c(=O)n(C)c3c1C(c1ccco1)N2` (stereo not shown), the inhibition at 5 µM under setting [1] is 41%. Also, under setting [2], the inhibition at 25 µM came out at 44%.
For `Cc1ccccc1C1Nc2ccccc2-n2c(-c3ccccc3)c3c(=O)n(C)c(=O)n(C)c3c21` (stereo not shown), in that order: 13% and 41%.
For `Cc1cc2c(cc1C)-n1c(-c3ccccc3F)c3c(=O)n(C)c(=O)n(C)c3c1C(c1ccccc1F)N2` (stereo not shown), in that order: 23% and 35%.
For `Cc1ccc(C2Nc3ccccc3-n3c(-c4ccccc4C)c4c(=O)n(C)c(=O)n(C)c4c32)cc1` (stereo not shown), in that order: 13% and 38%.
Take `Cn1c(=O)c2c(-c3ccc(Cl)cc3)n3c(c2n(C)c1=O)C(c1ccccc1)Nc1ccccc1-3` (stereo not shown): the inhibition at 5 µM under setting [1] was below 10%. Under setting [2], the inhibition at 25 µM came out at 34%.
On the same counts, the results for `COc1ccc(C2Nc3ccccc3-n3c(-c4ccccc4F)c4c(=O)n(C)c(=O)n(C)c4c32)cc1` (stereo not shown) are below 10% and 33%.
With `COc1ccc(-c2c3c(=O)n(C)c(=O)n(C)c3c3n2-c2ccccc2NC3c2cccc(O)c2)cc1` (stereo not shown), the inhibition at 5 µM under setting [1] was below 10%. For the same compound, under setting [2], the inhibition at 25 µM stood at 33%.
For `C=CCc1cccc(C2Nc3ccccc3-n3c(-c4ccccc4)c4c(=O)n(C)c(=O)n(C)c4c32)c1O` (stereo not shown), in that order: below 10% and 31%.
On to `Cc1ccc(-c2c3c(=O)n(C)c(=O)n(C)c3c3n2-c2ccccc2NC3c2cccc(F)c2F)cc1` (stereo not shown), for which the inhibition at 5 µM under setting [1] is 27%. Besides, the inhibition at 25 µM under setting [2] amounted to 31%.
In the case of `COc1ccc(O)c(C2Nc3ccccc3-n3c(-c4ccccc4)c4c(=O)n(C)c(=O)n(C)c4c32)c1` (stereo not shown), under setting [1], the inhibition at 5 µM is below 10%. For the same compound, the inhibition at 25 µM under setting [2] was determined as 33%.
For `CCOc1ccc(C2Nc3ccccc3-n3c(-c4ccccc4C)c4c(=O)n(C)c(=O)n(C)c4c32)cc1` (stereo not shown), in that order: below 10% and 32%.
For `COc1cccc(C2Nc3ccccc3-n3c(-c4ccc(Cl)cc4)c4c(=O)n(C)c(=O)n(C)c4c32)c1` (stereo not shown), the inhibition at 5 µM under setting [1] is below 10%. The inhibition at 25 µM under setting [2] came to 41%.
For `Cc1ccc(-c2c3c(=O)n(C)c(=O)n(C)c3c3n2-c2ccccc2NC3c2cccs2)cc1` (stereo not shown), in that order: below 10% and 35%.
With `Cn1c(=O)c2c(-c3ccccc3)n3c(c2n(C)c1=O)C(c1cc([N+](=O)[O-])ccc1O)Nc1ccccc1-3` (stereo not shown), under setting [1], the inhibition at 5 µM is 12%. Also, under setting [2], the inhibition at 25 µM came out at 40%.
Consider `COc1ccc(-c2c3c(=O)n(C)c(=O)n(C)c3c3n2-c2ccccc2NC3c2ccccc2F)cc1` (stereo not shown), for which the inhibition at 5 µM under setting [1] was below 10%. For the same compound, the inhibition at 25 µM under setting [2] worked out at 39%.
For `COc1ccc(-c2c3c(=O)n(C)c(=O)n(C)c3c3n2-c2ccccc2NC3c2ccccc2)cc1` (stereo not shown), under setting [1], the inhibition at 5 µM was below 10%. For the same compound, the inhibition at 25 µM under setting [2] was determined as 39%.
With `COc1ccc(O)c(C2Nc3ccccc3-n3c(-c4ccccc4C)c4c(=O)n(C)c(=O)n(C)c4c32)c1` (stereo not shown), the inhibition at 5 µM under setting [1] is below 10%. Moreover, under setting [2], the inhibition at 25 µM turned out to be 38%.
For the compound `Cc1ccc(C2Nc3ccccc3-n3c(-c4ccccc4)c4c(=O)n(C)c(=O)n(C)c4c32)cc1` (stereo not shown), the inhibition at 5 µM under setting [1] is below 10%. The inhibition at 25 µM under setting [2] came out at 38%.
On the same counts, the results for `Cn1c(=O)c2c(-c3ccccc3)n3c(c2n(C)c1=O)C(c1ccc(O)cc1O)Nc1ccccc1-3` (stereo not shown) are below 10% and 35%.
Turning to `COc1ccc(-c2c3c(=O)n(C)c(=O)n(C)c3c3n2-c2ccccc2NC3c2cccs2)cc1` (stereo not shown), the inhibition at 5 µM under setting [1] was below 10%. For the same compound, the inhibition at 25 µM under setting [2] was 34%.
On to `COc1cccc(C2Nc3ccccc3-n3c(-c4cccc(C)c4)c4c(=O)n(C)c(=O)n(C)c4c32)c1O` (stereo not shown), for which, under setting [1], the inhibition at 5 µM is below 10%. Further, under setting [2], the inhibition at 25 µM worked out at 31%.
As to `Cc1ccccc1-c1c2c(=O)n(C)c(=O)n(C)c2c2n1-c1ccccc1NC2c1cccc(O)c1O` (stereo not shown), the inhibition at 5 µM under setting [1] was below 10%. Also, under setting [2], the inhibition at 25 µM is 30%.
For the compound `COc1ccc(C2Nc3ccccc3-n3c(-c4ccc(Cl)cc4)c4c(=O)n(C)c(=O)n(C)c4c32)cc1` (stereo not shown), the inhibition at 5 µM under setting [1] is below 10%. In addition, the inhibition at 25 µM under setting [2] amounted to 31%.
Turning to `Cc1cccc(-c2c3c(=O)n(C)c(=O)n(C)c3c3n2-c2ccccc2NC3c2ccc(C)o2)c1` (stereo not shown) [PPQ-101, 7,9-Dimethyl-11-(3-methylphenyl)-6-(5-methylfuran-2-yl)-5,6-dihydro-pyrimido[4′,5′-3,4]pyrrolo[1,2-a]quinoxaline-8,10-(7H,9H)-dione], the half-inhibitory concentration (IC50) amounted to 700 nM. Under setting [1], the inhibition at 5 µM was above 95%. For the same compound, the inhibition at 25 µM under setting [2] is above 95%.
For the compound `Cc1ccc(C(=O)Nc2ccccc2-n2cc3c(c2-c2ccccc2)c(=O)n(C)c(=O)n3C)o1` [PPQ-102b, N-(2-(1,3-dimethyl-2,4-dioxo-5-phenyl-3,4-dihydro-1H-pyrrolo[3,4-d]pyrimidin-6(2H)-yl)phenyl)-5-methylfuran-2-carboxamide], the “CFTR inhibition activity” value (structure-activity analysis) is on record as “abolished CFTR inhibition activity”.
For the compound `Cc1ccc(C2Nc3ccccc3-n3c(-c4ccccc4C)c4c(=O)n(C)c(=O)n(C)c4c32)o1` (stereo not shown) [PPQ-103, 7,9-Dimethyl-11-(2-methylphenyl)-6-(5-methylfuran-2-yl)-5,6-dihydro-pyrimido[4′,5′-3,4]pyrrolo[1,2-a]quinoxaline-8,10-(7H,9H)-dione], the IC50 was determined as 800 nM. For the same compound, the inhibition at 5 µM under setting [1] turned out to be 63%. The inhibition at 25 µM under setting [2] was above 95%.
In the case of `Cc1ccc(C2Nc3cc(C)c(C)cc3-n3c(-c4ccccc4)c4c(=O)n(C)c(=O)n(C)c4c32)o1` (stereo not shown) [PPQ-104, 2,3,7,9-Tetramethyl-11-phenyl-6-(5-methylfuran-2-yl)-5,6-dihydro-pyrimido[4′,5′-3,4]pyrrolo[1,2-a]quinoxaline-8,10-(7H,9H)-dione], the IC50 amounted to 800 nM. Besides, the inhibition at 5 µM (read-out: % inhibition at 25/5 μM (5 μM value), Table 1, 5 μM compound) was found to be 84%. Besides, where the note is “read-out: % inhibition at 25/5 μM (25 μM value), Table 1, 25 μM compound”, the inhibition at 25 µM worked out at 90%. For the same compound, under setting [1], the inhibition at 5 µM came out at 84%. Moreover, under setting [2], the inhibition at 25 µM is 90%.

Values taken from US8609661B2, “Pyrimido-pyrrolo-quinoxalinedione inhibitors of cystic fibrosis transmembrane conductance regulator protein and uses therefor” (The Regents of the University of California, priority 2009, dated 2013).
